We go through eight compounds from the NIST ThermoML archive (doi:10.1016/j.fluid.2016.02.006).

For data set [1] the following is noted: Liquid, Vibrating tube method.
Data set [2] is described as follows: xn = mol fraction of the nth substance listed. To be noted: 101 kPa, Liquid, Vibrating tube method.

Numbers after ± are expanded uncertainties.

As to `c1ccccc1` [benzene], the mass density (usually the mass of a sample divided by its volume) in data set [1] (298.15 K, 101.33 kPa) is 873.71 ± 2 kg/m3; in data set [1] (308.15 K, 101 kPa), 862.98 ± 2 kg/m3; in data set [1] (318.15 K, 101 kPa) it was 852.16 ± 2 kg/m3.

In the case of `c1ccccc1` [benzene] + CCCCCCCC, the mass density in data set [2] (308.15 K, x2 = 0) came out at 862.98 ± 2 kg/m3; in data set [2] (318.15 K, x2 = 0), 852.16 ± 2 kg/m3.

Regarding `CCCC[N+](C)(C)C.O=S(=O)([N-]S(=O)(=O)C(F)(F)F)C(F)(F)F` [butyltrimethylammonium bis(trifluoromethylsulfonyl)imide], in data set [1] (298.15 K, 101.33 kPa), the mass density was found to be 1392.99 ± 6 kg/m3.

Take `CCCCCCCCCC` [decane]: in data set [1] (298.15 K, 101.33 kPa), the mass density was determined as 726.15 ± 2 kg/m3.

For the compound `CCCCCCCCCCCC` [dodecane], in data set [1] (298.15 K, 101.33 kPa), the mass density worked out at 745.28 ± 2 kg/m3.

For the compound `CCCCCCCC` [octane], the mass density in data set [1] (298.15 K, 101.33 kPa) was determined as 698.86 ± 2 kg/m3; in data set [1] (308.15 K, 101 kPa), 690.72 ± 2 kg/m3; in data set [1] (318.15 K, 101 kPa), 682.5 ± 2 kg/m3.

Regarding `CCCCCCCC` [octane] + c1ccccc1, the mass density in data set [2] (308.15 K, x1 = 0.0959) is listed as 832.4 ± 4.5 kg/m3; in data set [2] (308.15 K, x1 = 0.1937), 806.43 ± 3.9 kg/m3; in data set [2] (308.15 K, x1 = 0.3048) it was 781.74 ± 3.5 kg/m3; in data set [2] (308.15 K, x1 = 0.41), 762.04 ± 3.2 kg/m3; in data set [2] (308.15 K, x1 = 0.5097), 745.81 ± 2.9 kg/m3; in data set [2] (308.15 K, x1 = 0.6058) it was 732.34 ± 2.7 kg/m3. For the same compound, the mass density in data set [2] (308.15 K, x1 = 0.711) is listed as 719.36 ± 2.6 kg/m3; in data set [2] (308.15 K, x1 = 0.8101), 708.42 ± 2.5 kg/m3; in data set [2] (308.15 K, x1 = 0.9076) it was 698.91 ± 2.4 kg/m3; in data set [2] (308.15 K, x1 = 1) it was 690.72 ± 2 kg/m3; in data set [2] (318.15 K, x1 = 0.0988), 821.33 ± 4.4 kg/m3; in data set [2] (318.15 K, x1 = 0.1982), 796.48 ± 3.9 kg/m3. The mass density in data set [2] (318.15 K, x1 = 0.3072) is 771.56 ± 3.5 kg/m3; in data set [2] (318.15 K, x1 = 0.407) it was 753.05 ± 3.1 kg/m3; in data set [2] (318.15 K, x1 = 0.5096) it was 736.77 ± 2.9 kg/m3; in data set [2] (318.15 K, x1 = 0.598), 724.35 ± 2.7 kg/m3; in data set [2] (318.15 K, x1 = 0.7048) it was 711.47 ± 2.6 kg/m3; in data set [2] (318.15 K, x1 = 0.8039), 700.49 ± 2.5 kg/m3. Also, the mass density in data set [2] (318.15 K, x1 = 0.9005) amounted to 691.19 ± 2.4 kg/m3; in data set [2] (318.15 K, x1 = 1) it was 682.5 ± 2 kg/m3.

Consider `CCCC[N+](C)(CCCC)CCCC.O=S(=O)([N-]S(=O)(=O)C(F)(F)F)C(F)(F)F` [tributylmethylammonium bis((trifluoromethyl)sulfonyl)imide], for which the mass density in data set [1] (298.15 K, 101.33 kPa) came out at 1261.65 ± 6 kg/m3.
